According to patent publication US20120177742A1, “NANOPARTICLE AND SURFACE-MODIFIED PARTICULATE COATINGS, COATED BALLOONS, AND METHODS THEREFORE” (MICELL TECHNOLOGIES, INC., priority 2010, published 2012):
Where “and” joins values, the source holds several entries; their conditions need not be identical. Identical values can stand only once. Like-named read-outs stand apart in the source and are kept apart here. Marks after values point to notes of the source that are not given here.

Tests used:
[1] = Rapamycin coating affinity testing: distribution between solid and liquid phases with surfactant in water (UV-Vis); type: physicochemical; details: for Cal. Rapa (Sediment) / Cal. Rapa (Supernate): calculated from UV-Vis absorbance; for Cal. Rapa (Sediment): in mg (unit assumed); for Cal. Rapa (Supernate): unit assumed; for total (% original) / total (% of original): percent recovery of initial rapamycin loading
Excerpt: One method of applying a positive surface charge to the coating is to add DMAB to the coating such that it is on its surface, at least. […] The coating is then sintered according to the RESS process. […] Care should be taken in certain embodiments to optimize the DMAB's application to the balloon and to handle the balloon thereafter to keep the DMAB from washing off. […] The initial mass of rapamycin is shown in the column labeled “Original rapa.” The supernatant (liquid phase) contains the material of interest as it is drug particles coated with the surfactant modifier. The values presented in the columns labeled “Cal. Rapa” are calculated from the UV-Vis absorbance spectrum of the sediment or supernatant respectively. The ratio of these two values determined the partition coefficient between the sediment and supernatant (reported in the column labeled “ratio”).
The initial mass of rapamycin is shown in the column labeled “Original rapa.” The supernatant (liquid phase) contains the material of interest as it is drug particles coated with the surfactant modifier. The values presented in the columns labeled “Cal. Rapa” are calculated from the UV-Vis absorbance spectrum of the sediment or supernatant respectively. The ratio of these two values determined the partition coefficient between the sediment and supernatant (reported in the column labeled “ratio”).

[2] = Sirolimus concentration in rabbit blood after inflation of two coated balloons per animal; type: in vivo
Protocol: After a 2d balloon inflation, blood samples were taken at the given time points (0 h, 6 h, 24 h).

[3] = Study 1 balloons left uninflated in rabbit aorta, exposed to blood flow: drug lost
in vivo = details: rabbit, iliac artery wall, other: coated balloon catheter deployed in iliac arteries
Protocol: The coated balloons were sterilized and then used in a rabbit animal study. The balloons were deployed at the target sites (iliac arteries) in the rabbits in the study, two balloons per animal. […] The amount of drug per tissue was determined using a LC-MS test method. Liquid chromatography-mass spectrometry (LC-MS) was used to determine the amount of drug per tissue. Prior to LC-MS, artery samples were homogenized using an Omni hand held probe (1:99 w:v in 80:20 MeOH:2 mM Ammonium Acetate in water with 0.1% Formic Acid). The density of the artery was assumed to be 1 g/mL
Balloons were inflated for a minimum of one minute. […] The estimated time the artery was exposed to blood flow was also tracked, and refers to the amount of time after the balloon was inflated.

[4] = 1:1 Surfactant to Rapa (w/w), 10x dilution in water
[5] = 1:1 Surfactant to Rapa, 10x dilution
[6] = 1:1 Surfactant to Rapa, 10x dilution, partition between supernatant and sediment
[7] = 1:10 Surfactant to Rapa (w/w), 100x dilution in water
[8] = 1:10 Surfactant to Rapa, 100x dilution
[9] = 10:1 Surfactant to Rapa (w/w), 6x dilution in water
[10] = 10:1 Surfactant to Rapa, 6x dilution

Compound | Sediment wt [1, 4] | Cal. Rapa (Sediment) [1, 5] | Cal. Rapa (Supernate) [1, 5] | ratio super/sed [1, 6] | total (% original) [1, 5] | Sediment wt [1, 7] | ratio super/sed [1, 8] | Cal. Rapa (Sediment) [1, 8] | Cal. Rapa (Supernate) [1, 8] | total (% of original) [1, 8] | Sediment wt [1, 9] | ratio super/sed [1, 10] | Cal. Rapa (Sediment) [1, 10] | Cal. Rapa (Supernate) [1, 10] | total (% of original) [1, 10] | also measured
Poly-L-Lysine (average or nominal MW of about 67,000 Da) [Poly Lisine 66,700] | 1.85 mg | 1.43 | 0.33 mg | 0.23 | 93.6% |  |  |  |  |  | 2.9 mg | 0.10 | 1.2 | 0.12 mg | 55.2% | 
CO[C@H]1C[C@@H]2CC[C@@H](C)[C@@](O)(O2)C(=O)C(=O)N2CCCC[C@H]2C(=O)O[C@H]([C@H](C)C[C@@H]2CC[C@@H](O)[C@H](OC)C2)CC(=O)[C@H](C)/C=C(\C)[C@@H](O)[C@@H](OC)C(=O)[C@H](C)C[C@H](C)/C=C/C=C/C=C/1C [sirolimus] |  |  |  |  |  |  |  |  |  |  |  |  |  |  |  | Total Sirolimus per Artery (Denuded Arteries, rabbit iliac, 0 h, artery exposed to blood flow 5 or 10 min, single arteries and Average): 7.36 µg and 4.62 µg and 5.75 µg and 4.46 µg and 3.92 µg and 4.27 µg; drug (sirolimus) transferred to artery (Study 1 balloons): 1-5%; sirolimus washed away into circulation (Study 1 balloons, 0 h): 5.4 ± 2.3 µg; Est. Total Sirolimus in Blood Normalized to Human ([2]; 6 hr, based on 5 L of blood in the average human): 0.08 ng/mL and 0.07 ng/mL and 0.06 ng/mL; Est. Total Sirolimus in Blood ([2]; 6 hr, based on 56 mL per kg in rabbits): 0.5 µg and 0.4 µg and 0.3 µg; time within which drug released from balloon and/or artery was cleared from the blood ([2]; rabbit, after balloon inflation): ≤ 24 h; concentration at 0 h ([2]; rabbit, blood, other: coated balloon catheters inflated in iliac arteries, rabbit blood, 0 Hr, two coated balloons per animal, single animals and Average, read-out: Post-Inflation Conc.): 8.35 ng/mL; concentration at 6 h ([2]; rabbit, blood, other: coated balloon catheters inflated in iliac arteries, rabbit blood, 6 hr, two coated balloons per animal, single animals and Average, read-out: Post-Inflation Conc.): 2.82 ng/mL; concentration at 6 h ([2]; rabbit, whole blood, other: inflation of drug-coated balloons in iliac arteries, Est. Total Sirolimus in Blood Normalized to Human, 6 hr, based on 5 L of blood in the average human): 0.1 ng/mL; sirolimus removed from balloons before inflation ([3]; Study 1 balloons): 65.6±1.3%; average percent drug (sirolimus) lost ([3]; four Study 1 balloons left uninflated two minutes in rabbit aorta, exposed to blood flow, based on batch average UV-Vis): 65.6%; concentration at 0 h (in vivo): 197000 ± 85300 ng/g
Poly-L-Lysine (average or nominal MW of about 28,200 Da) [Poly Lysin 28,200] | 4.89 mg | 1.36 | 0.35 mg | 0.26 | 85.9% | 7.4 mg | 0.11 | 7 | 0.74 mg | 80.2% | 4.3 mg | 0.11 | 1.2 | 0.13 mg | 63.0% | 
Poly-L-Arginine (average or nominal MW of about 70,000 Da) [Poly Arginine 70,000] | 11.7 mg | 1.49 | 0.73 mg | 0.49 | 100.9% | 7.9 mg | 0.15 | 6.95 | 1.01 mg | 77.9% | 2.81 mg | 0.18 | 1.18 | 0.21 mg | 72.0% | 
CCCCCCCCCCCC[N+](C)(C)C.[Br-] [Dodecyltrimethylammonium Bromide, Dodecyltrimethyl Ammonium Bromide] | 1.99 mg | 1.65 | 0.5 mg | 0.30 | 108.6% | 7.7 mg | 0.20 | 6.6 | 1.33 mg | 81.9% | 2.56 mg | 0.65 | 1.2 | 0.78 mg | 87.6% | 
CCCC[N+](CCCC)(CCCC)CCCC.[I-] [Tetrabutylammonium iodide] | 2.1 mg | 1.97 | 0.6 mg | 0.30 | 114.2% |  |  |  |  |  | 2.05 mg | 0.39 | 1.07 | 0.42 mg | 80.1% | 

Second part, led by results:

Sediment wt [1, 4] | Cal. Rapa (Sediment) [1, 5] | Cal. Rapa (Supernate) [1, 5] | ratio super/sed [1, 6] | total (% original) [1, 5] | Sediment wt [1, 7] | ratio super/sed [1, 8] | Cal. Rapa (Sediment) [1, 8] | Cal. Rapa (Supernate) [1, 8] | total (% of original) [1, 8] | Sediment wt [1, 9] | ratio super/sed [1, 10] | Cal. Rapa (Sediment) [1, 10] | Cal. Rapa (Supernate) [1, 10] | total (% of original) [1, 10] | Compound | also measured
3.85 mg | 1.37 | 0.33 mg | 0.24 | 89.5% | 8.6 mg | 0.15 | 6.86 | 1.05 mg | 80.2% | 3.21 mg | 31.50 | 0.04* | 1.26 mg | 59.6% | CCCCCCCCCCCCCCCC[N+](C)(C)CC.[Br-] [Ethylhexadecyldimethylammonium Bromide] | 
2.28 mg | 1.9 | 0.59 mg | 0.31 | 113.2% |  |  |  |  |  | 1.9 mg | 1.42 | 0.85 | 1.21 mg | 110.2% | CCCCCCCCCCCCCC[N+](C)(C)CCCCCCCCCCCCCC.[Br-] [Dimethylditetradecylammonium bromide, Dimethylditetradecyl Ammonium bromide] | 
3.72 mg | 1.24 | 0.3 mg | 0.24 | 72.6% | 6.5 mg | 0.21 | 5.36 | 1.15 mg | 66.2% | 5.11 mg | 0.46 | 1.1 | 0.51 mg | 84.3% | Poly-L-Arginine (average or nominal MW of about 5,000 to about 15,000 Da) [Poly Arginine 5,000-15,000] | 
7.21 mg | 1.61 | 0.32 mg | 0.20 | 92.8% | 7.9 mg | 0.18 | 7.06 | 1.29 mg | 78.8% | 2.85 mg | 0.30 | 0.94 | 0.28 mg | 65.6% | Poly Histidine | 
2.2 mg | 1.23 | 0.64 mg | 0.52 | 98.4% | 8.52 mg | 0.06 | 7.23 | 0.4 mg | 79.5% | 3.73 mg | 0.83 | 1.23 | 1.02 mg | 107.1% | CCCCCCCCCCCC[N+](C)(C)CCCCCCCCCCCC.[Br-] [DMAB, didodecyldimethylammonium bromide] | 
6.31 mg | 1.51 | 0.25 mg | 0.17 | 88.0% |  |  |  |  |  | 3.6 mg | 0.31 | 1.24 | 0.39 mg | 73.1% | CCCCCCCCCCCC[N+](CCCCCCCCCCCC)(CCCCCCCCCCCC)CCCCCCCCCCCC.[Br-] [Tetradodecylammoniumbromid, Tetradodecylammonium bromide] | 
